ChEMBL document CHEMBL4680224, “Discovery of pyridine tetrahydroisoquinoline thiohydantoin derivatives with low blood-brain barrier penetration as the androgen receptor antagonists” (Eur J Med Chem, 2020)
Active and inactive are the calls of the source. The rule behind the calls is not given here.

Tests used:
LNCaP [1] = test: Antitumour activity against human LNCaP cells xenografted in BALB/c nude mouse assessed as decrease in PSA level at 30 mg/kg, po administered daily for 21 days by ELISA relative to control; format: functional; set-up: scale not given: the % may be the effect or the level left; conditions: time 21 day
[2] = Toxicity in ICR mouse assessed as reduction in body weight at 100 to 1000 mg/kg, po administered for 14 days; format: organism-based; conditions: in vivo, 336 h, dose 100-1000 mg/kg, time 14 day
Androgen receptor = target: T1, Androgen receptor (Homo sapiens, UniProt P10275); test: Antagonist activity at Androgen receptor (unknown origin) expressed in COS7 cells by dual luciferase reporter gene assay relative to control; format: cell-based
T1 sequence (P10275 whole entry): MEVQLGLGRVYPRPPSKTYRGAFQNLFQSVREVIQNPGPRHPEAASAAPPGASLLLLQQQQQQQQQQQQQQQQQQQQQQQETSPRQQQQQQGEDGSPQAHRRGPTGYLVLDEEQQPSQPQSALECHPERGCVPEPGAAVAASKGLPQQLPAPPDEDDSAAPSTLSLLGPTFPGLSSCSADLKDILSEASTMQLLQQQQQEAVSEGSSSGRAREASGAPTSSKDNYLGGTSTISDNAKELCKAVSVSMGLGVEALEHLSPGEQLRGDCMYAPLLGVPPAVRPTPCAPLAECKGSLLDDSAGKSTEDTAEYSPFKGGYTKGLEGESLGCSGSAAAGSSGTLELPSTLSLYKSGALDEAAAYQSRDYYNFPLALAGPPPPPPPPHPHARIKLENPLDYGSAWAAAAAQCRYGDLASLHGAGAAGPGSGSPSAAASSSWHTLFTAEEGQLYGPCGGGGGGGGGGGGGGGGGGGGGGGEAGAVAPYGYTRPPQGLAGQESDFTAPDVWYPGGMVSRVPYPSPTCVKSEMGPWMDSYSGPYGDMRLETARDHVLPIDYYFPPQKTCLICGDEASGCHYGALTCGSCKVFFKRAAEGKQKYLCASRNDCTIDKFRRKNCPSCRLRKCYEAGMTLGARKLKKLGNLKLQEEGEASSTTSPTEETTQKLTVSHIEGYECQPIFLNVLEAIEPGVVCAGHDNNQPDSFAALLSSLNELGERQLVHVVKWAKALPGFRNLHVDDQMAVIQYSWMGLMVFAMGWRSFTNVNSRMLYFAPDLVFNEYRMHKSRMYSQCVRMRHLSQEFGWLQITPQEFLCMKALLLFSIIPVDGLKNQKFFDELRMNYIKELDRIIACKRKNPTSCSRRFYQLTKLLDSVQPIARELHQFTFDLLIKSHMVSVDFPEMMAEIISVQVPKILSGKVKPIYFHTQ

DU-145 = test: Antiproliferative activity against human DU-145 cells assessed as reduction in cel viability after 72 hrs by MTT assay; format: functional, cell-based; conditions: DU-145, 72 h
LNCaP [3] = test: Antitumour activity against human LNCaP cells xenografted in po dosed BALB/c nude mouse assessed as reduction in tumour weight administered daily for 21 days; format: functional, organism-based; conditions: dose 15-45 mg/kg, time 21.0 day
[4] = Half life in human liver microsomes at 10 uM; format: ADME, Microsome
[5] = Toxicity in BALB/c mouse xenografted with human LNCaP cells assessed as pathological changes in heart at 15 to 45 mg/kg, po administered daily for 21 days H and E staining based optical microscopic method; format: organism-based; conditions: in vivo, 504 h, dose 15-45 mg/kg, time 21 day
LNCaP [6] = test: Antitumour activity against human LNCaP cells xenografted in BALB/c nude mouse assessed as decrease in PSA level at 15 mg/kg, po administered daily for 21 days by ELISA relative to control; format: functional; set-up: scale not given: the % may be the effect or the level left; conditions: time 21 day
[7] = Toxicity in ICR mouse assessed as pathological changes in prostate […] at 100 to 1000 mg/kg, po administered for 14 days by H and E staining based optical microscopic method; format: organism-based; conditions: in vivo, 336 h, dose 100-1000 mg/kg, time 14 day
[8] = Stability in human liver microsomes assessed as parent compound remaining at 10 uM; format: ADME, Microsome; conditions: read-out: Stabilty
LNCaP [9] = test: Antitumour activity against human LNCaP cells xenografted in BALB/c nude mouse assessed as reduction in tumour weight at 15 mg/kg, po administered daily for 21 days relative to control; format: functional; conditions: 504 h, time 21 day, read-out: TGI
[10] = Toxicity in BALB/c mouse xenografted with human LNCaP cells assessed as pathological changes in lung at 15 to 45 mg/kg, po administered daily for 21 days H and E staining based optical microscopic method; format: organism-based; conditions: in vivo, 504 h, dose 15-45 mg/kg, time 21 day
[11] = Toxicity in BALB/c mouse xenografted with human LNCaP cells assessed as pathological changes in liver at 15 to 45 mg/kg, po administered daily for 21 days H and E staining based optical microscopic method; format: organism-based; conditions: in vivo, 504 h, dose 15-45 mg/kg, time 21 day
LNCaP [12] = test: Antitumour activity against human LNCaP cells xenografted in BALB/c nude mouse assessed as decrease in PSA level at 45 mg/kg, po administered daily for 21 days by ELISA relative to control; format: functional; set-up: scale not given: the % may be the effect or the level left; conditions: time 21 day
in vitro = conditions: human, liver microsomes
Description: Intrinsic clearance in human liver microsomes at 10 uM

[13] = Toxicity in BALB/c mouse xenografted with human LNCaP cells assessed as pathological changes in spleen at 15 to 45 mg/kg, po administered daily for 21 days H and E staining based optical microscopic method; format: organism-based; conditions: in vivo, 504 h, dose 15-45 mg/kg, time 21 day
LNCaP [14] = test: Antitumour activity against human LNCaP cells xenografted in BALB/c nude mouse assessed as increase in necrosis at 15 to 45 mg/kg, po administered daily for 21 days by H and E staining based optical microscopic method; format: functional, organism-based; conditions: dose 15-45 mg/kg, time 21.0 day
LNCaP [15] = test: Antitumour activity against human LNCaP cells xenografted in po dosed BALB/c nude mouse assessed as decrease in PSA level administered daily for 21 days by ELISA; format: functional, organism-based; conditions: dose 15-45 mg/kg, time 21.0 day
[16] = Toxicity in BALB/c mouse xenografted with human LNCaP cells assessed as pathological changes in kidney at 15 to 45 mg/kg, po administered daily for 21 days H and E staining based optical microscopic method; format: organism-based; conditions: in vivo, 504 h, dose 15-45 mg/kg, time 21 day
[17] = Toxicity in BALB/c mouse xenografted with LNCaP cells assessed as reduction in body weight at 15 to 45 mg/kg, po administered daily for 21 days; format: organism-based; conditions: in vivo, 504 h, dose 15-45 mg/kg, time 21 day
LNCaP [18] = test: Antitumour activity against human LNCaP cells xenografted in BALB/c nude mouse assessed as reduction in tumour weight at 30 mg/kg, po administered daily for 21 days relative to control; format: functional; conditions: 504 h, time 21 day, read-out: TGI
LNCaP [19] = test: Antitumour activity against human LNCaP cells xenografted in BALB/c nude mouse assessed as reduction in tumour weight at 45 mg/kg, po administered daily for 21 days relative to control; format: functional; conditions: Mus musculus, LNCaP, po, 504 h, time 21 day, read-out: TGI
LNCaP [20] = test: Antitumour activity against human LNCaP cells xenografted in BALB/c nude mouse assessed as increase in karyorrhexis at 15 to 45 mg/kg, po administered daily for 21 days by H and E staining based optical microscopic method; format: functional, organism-based; conditions: dose 15-45 mg/kg, time 21.0 day
[21] = Toxicity in ICR mouse assessed as pathological changes in seminal vesicle at 100 to 1000 mg/kg, po administered for 14 days by H and E staining based optical microscopic method; format: organism-based; conditions: in vivo, 336 h, dose 100-1000 mg/kg, time 14 day
LNCaP [22] = test: Antitumour activity against human LNCaP cells xenografted in po dosed BALB/c nude mouse assessed as reduction in tumour volume administered daily for 21 days; format: functional, organism-based; conditions: dose 15-45 mg/kg, time 21.0 day
LNCaP [23] = test: Antiproliferative activity against human LNCaP cells assessed as reduction in cel viability after 72 hrs by MTT assay; format: functional, cell-based
LNCaP [24] = test: Antitumour activity against human LNCaP cells xenografted in po dosed BALB/c nude mouse assessed as reduction in tumour size administered daily for 21 days; format: functional, organism-based; conditions: dose 15-45 mg/kg, time 21.0 day

CCOC(=O)Nc1cc2c(cc1F)CC1C(=O)N(c3cnc(C#N)c(C(F)(F)F)c3)C(=S)N1C2 (configuration not stated)
Activity (LNCaP [1]): 43% | Activity [2]: Non-Toxic | IC50 (Androgen receptor): 6.17 µM | IC50 (DU-145): 94.3 µM | Activity (LNCaP [3]): Dose-dependent effect | half-life at 10 µM [4]: 4.36 h | Activity [5]: Non-Toxic | Activity (LNCaP [6]): 24% | Activity [7]: Non-Toxic | remaining at 10 µM [8]: 87.1% | inhibition in vivo at 15 mg/kg (LNCaP [9]): 12% | Activity [10]: Non-Toxic | Activity [11]: Non-Toxic | Activity (LNCaP [12]): 73% | CLint scaled at 10 µM (in vitro): 7.86 mL/min/kg | Activity [13]: Non-Toxic | Activity (LNCaP [14]): Active | Activity (LNCaP [15]): Dose-dependent effect | Activity [16]: Non-Toxic | Activity [17]: Non-Toxic | inhibition in vivo at 30 mg/kg (LNCaP [18]): 39% | inhibition in vivo at 45 mg/kg (LNCaP [19]): 79% | Activity (LNCaP [20]): Active | Activity [21]: Non-Toxic | Activity (LNCaP [22]): Dose-dependent effect | IC50 (LNCaP [23]): 14.8 µM | Activity (LNCaP [24]): Dose-dependent effect
